From ChEMBL document CHEMBL6096638, “Design, synthesis and biological evaluation of novel TMPRSS2-PROTACs with florosubstituted 4-guanidino-N-phenylbenzamide derivative ligands” (Bioorg Med Chem, 2024)
Active and inactive are the calls of the source. The calls are words filed in the database; no cut-off is given here.

Key:
[1] = test system: Calu-3; experiment: Antiproliferative activity against human Calu-3 cells assessed as inhibition of cell growth at 20 uM incubated for 48 hrs by CCK-8 assay relative to control; format: functional
[2] = test system: HT-29; experiment: Antiproliferative activity against human HT-29 cells assessed as inhibition of cell growth at 20 uM incubated for 48 hrs by CCK-8 assay relative to control; format: functional
[3] = test system: DU-145; experiment: Antiproliferative activity against human DU-145 cells assessed as inhibition of cell growth at 20 uM incubated for 48 hrs by CCK-8 assay relative to control; format: functional
[4] = test system: DU-145; experiment: Antiproliferative activity against human DU-145 cells assessed as inhibition of cell growth incubated for 48 hrs by CCK-8 assay; format: functional, cell-based; conditions: DU-145, 48 h
[5] = test system: HT-29; experiment: Antiproliferative activity against human HT-29 cells assessed as inhibition of cell growth incubated for 48 hrs by CCK-8 assay; format: functional, cell-based; conditions: HT-29, 48 h
[6] = test system: Calu-3; experiment: Antiproliferative activity against human Calu-3 cells assessed as inhibition of cell growth incubated for 48 hrs by CCK-8 assay; format: functional, cell-based; conditions: Calu-3, 48 h
[7] = test system: A549; experiment: Antiproliferative activity against human A549 cells assessed as inhibition of cell growth incubated for 48 hrs by CCK-8 assay; format: functional, cell-based; conditions: A549, 48 h
[8] = test system: MRC5; experiment: Antiproliferative activity against human MRC5 cells assessed as inhibition of cell growth incubated for 48 hrs by CCK-8 assay; format: functional, cell-based; conditions: MRC5, 48 h
[9] = test system: MDA-MB-231; experiment: Antiproliferative activity against human MDA-MB-231 cells assessed as inhibition of cell growth incubated for 48 hrs by CCK-8 assay; format: functional, cell-based; conditions: MDA-MB-231, 48 h
[10] = test system: AGS; experiment: Antiproliferative activity against human AGS cells assessed as inhibition of cell growth incubated for 48 hrs by CCK-8 assay; format: functional, cell-based
[11] = test system: PC-3; experiment: Antiproliferative activity against human PC-3 cells assessed as inhibition of cell growth incubated for 48 hrs by CCK-8 assay; format: functional, cell-based; conditions: PC-3, 48 h
[12] = test system: SK-N-AS; experiment: Antiproliferative activity against human SK-N-AS cells assessed as inhibition of cell growth incubated for 48 hrs by CCK-8 assay; format: functional, cell-based
[13] = test system: A-375; experiment: Antiproliferative activity against human A-375 cells assessed as inhibition of cell growth incubated for 48 hrs by CCK-8 assay; format: functional, cell-based; conditions: A-375, 48 h
[14] = test system: 786-0; experiment: Antiproliferative activity against human 786-0 cells assessed as inhibition of cell growth incubated for 48 hrs by CCK-8 assay; format: functional, cell-based; conditions: 786-0, 48 h
[15] = test system: NCI-H1299; experiment: Antiproliferative activity against human NCI-H1299 cells assessed as inhibition of cell growth incubated for 48 hrs by CCK-8 assay; format: functional, cell-based; conditions: NCI-H1299, 48 h
[16] = test system: SH-SY5Y; experiment: Antiproliferative activity against human SH-SY5Y cells assessed as inhibition of cell growth incubated for 48 hrs by CCK-8 assay; format: functional, cell-based
[17] = test system: K562; experiment: Antiproliferative activity against human K562 cells assessed as inhibition of cell growth incubated for 48 hrs by CCK-8 assay; format: functional, cell-based; conditions: K562, 48 h
[18] = test system: CWR22R; experiment: Antiproliferative activity against human 22Rv1 cells assessed as inhibition of cell growth incubated for 48 hrs by CCK-8 assay; format: functional, cell-based; conditions: 22Rv1, 48 h
[19] = test system: VCaP; experiment: Antiproliferative activity against human VCaP cells assessed as inhibition of cell growth incubated for 48 hrs by CCK-8 assay; format: functional, cell-based

Row | Compound | inhibition at 20 µM [2] | inhibition at 20 µM [3] | inhibition [1] | further results
1 | Cc1ncsc1-c1ccc(CNC(=O)[C@@H]2C[C@@H](O)CN2C(=O)[C@@H](NC(=O)CN2CCC(CN3CCN(c4ccc(NC(=O)c5ccc(NC(=N)N)cc5F)cc4)CC3)CC2)C(C)(C)C)cc1 | 91.9% | 56.9% |  | inhibition at 20 µM [1]: 47.5%; IC50 [4]: 11200 nM; IC50 [5]: 3830 nM; IC50 [6]: 21400 nM; IC50 [7]: 35100 nM; IC50 [8]: > 40000 nM
2 | Cc1ncsc1-c1ccc(CNC(=O)[C@@H]2C[C@@H](O)CN2C(=O)[C@@H](NC(=O)CN2CCN(c3ccc(NC(=O)c4ccc(NC(=N)N)cc4F)cc3)CC2)C(C)(C)C)cc1 | 34.4% | 14.4% |  | inhibition at 20 µM [1]: 10.3%
3 | Cc1ncsc1-c1ccc(CNC(=O)[C@@H]2C[C@@H](O)CN2C(=O)[C@@H](NC(=O)CN2CCC(CN3CCN(c4ccc(NC(=O)Cc5ccc(NC(=O)c6ccc(NC(=N)N)cc6)cc5)cc4)CC3)CC2)C(C)(C)C)cc1 | 25.9% | 5.63% | inactive | 
4 | COc1cc(C(=O)Nc2ccc(CC(=O)Nc3ccc(CC(=O)NCCCCCCNc4cccc5c4C(=O)N(C4CCC(=O)NC4=O)C5=O)cc3)cc2)ccc1NC(=N)N (centres undefined) | 32.7% | 16.5% | inactive | 
5 | CC(=O)O[C@H]1C(=O)[C@@]2(C)[C@H]([C@H](OC(=O)c3ccccc3)[C@]3(O)C[C@H](OC(=O)[C@H](O)[C@@H](NC(=O)c4ccccc4)c4ccccc4)C(C)=C1C3(C)C)[C@]1(OC(C)=O)CO[C@@H]1C[C@@H]2O [PACLITAXEL] |  |  |  | IC50 [4]: 10 nM; IC50 [5]: 10 nM; IC50 [6]: 37200 nM; IC50 [9]: 60 nM; IC50 [10]: 10 nM; IC50 [11]: 7560 nM; IC50 [8]: 110 nM; IC50 [12]: 10 nM; IC50 [13]: 10 nM; IC50 [14]: 80 nM; IC50 [15]: 1150 nM; IC50 [16]: 10 nM; IC50 [17]: 10 nM; IC50 [18]: 40 nM; IC50 [19]: 5540 nM
6 | Cc1ncsc1-c1ccc(CNC(=O)[C@@H]2C[C@@H](O)CN2C(=O)[C@@H](NC(=O)OCCOCCOCCOCc2cccc(NC(=O)c3ccc(NC(=N)N)cc3)c2)C(C)(C)C)cc1 | 15.1% | 13.7% | inactive | 
7 | COc1cc(C(=O)Nc2ccc(CC(=O)NCCCCCCC(=O)N[C@H](C(=O)N3C[C@H](O)C[C@H]3C(=O)NCc3ccc(-c4scnc4C)cc3)C(C)(C)C)cc2)ccc1NC(=N)N | 31.6% | 8.05% | inactive | 
8 | N=C(N)Nc1ccc(C(=O)Nc2ccc(CC(=O)NCCCCCC(=O)N3CCN(c4ccc5c(c4)C(=O)N(C4CCC(=O)NC4=O)C5=O)CC3)cc2)cc1 (centres undefined) | 22.4% | 5.82% | inactive | 
9 | COc1cc(C(=O)Nc2ccc(N3CCN(CC(=O)N[C@H](C(=O)N4C[C@H](O)C[C@H]4C(=O)NCc4ccc(-c5scnc5C)cc4)C(C)(C)C)CC3)cc2)ccc1NC(=N)N | 30.7% | 6.76% | inactive | 
10 | Cc1ncsc1-c1ccc(CNC(=O)[C@@H]2C[C@@H](O)CN2C(=O)[C@@H](NC(=O)CN2CCN(c3ccc(NC(=O)c4ccc(NC(=N)N)cc4)cc3)CC2)C(C)(C)C)cc1 | 29.7% | 9.51% | inactive | 
11 | Cc1ncsc1-c1ccc(CNC(=O)[C@@H]2C[C@@H](O)CN2C(=O)[C@@H](NC(=O)COCCOCCOCCN2CCN(c3cccc(NC(=O)c4ccc(NC(=N)N)cc4)c3)CC2)C(C)(C)C)cc1 | 23.8% | 15.3% | inactive | 
12 | COc1cc(C(=O)Nc2ccc(CC(=O)NCCCCCC(=O)N[C@H](C(=O)N3C[C@H](O)C[C@H]3C(=O)NCc3ccc(-c4scnc4C)cc3)C(C)(C)C)cc2)ccc1NC(=N)N | 20.5% | 7.56% | inactive | 
13 | COc1cc(C(=O)Nc2ccc(CC(=O)NCCCCCC(=O)N3CCN(c4ccc5c(c4)C(=O)N(C4CCC(=O)NC4=O)C5=O)CC3)cc2)ccc1NC(=N)N (centres undefined) | 7.56% | 7.04% | inactive | 
14 | COc1cc(C(=O)Nc2ccc(N3CCN(CC4CCN(CC(=O)N[C@H](C(=O)N5C[C@H](O)C[C@H]5C(=O)NCc5ccc(-c6scnc6C)cc5)C(C)(C)C)CC4)CC3)cc2)ccc1NC(=N)N | 42.3% |  | inactive | inhibition [3]: inactive
15 | Cc1ncsc1-c1ccc(CNC(=O)[C@@H]2C[C@@H](O)CN2C(=O)[C@@H](NC(=O)CN2CCC(CN3CCN(c4ccc(NC(=O)c5ccc(NC(=N)N)cc5)cc4)CC3)CC2)C(C)(C)C)cc1 | 35.5% | 6.8% | inactive | 
16 | COc1cc(C(=O)Nc2ccc(CC(=O)NCCCCCCNc3cccc4c3C(=O)N(C3CCC(=O)NC3=O)C4=O)cc2)ccc1NC(=N)N (centres undefined) | 21.1% | 10.5% | inactive | 
17 | Cc1ncsc1-c1ccc(CNC(=O)[C@@H]2C[C@@H](O)CN2C(=O)[C@@H](NC(=O)COCCOCCOCCN2CCN(c3ccc(NC(=O)c4ccc(NC(=N)N)cc4)cc3)CC2)C(C)(C)C)cc1 | 14.4% |  | inactive | inhibition [3]: inactive
18 | COc1cc(C(=O)Nc2ccc(CC(=O)Nc3ccc(N4CCN(CC5CCN(CC(=O)N[C@H](C(=O)N6C[C@H](O)C[C@H]6C(=O)NCc6ccc(-c7scnc7C)cc6)C(C)(C)C)CC5)CC4)cc3)cc2)ccc1NC(=N)N | 18.4% | 5.06% |  | inhibition at 20 µM [1]: 5.66%
19 | COc1cc(C(=O)Nc2ccc(CC(=O)NCCCCCC(=O)Nc3cccc4c3CN(C3CCC(=O)NC3=O)C4=O)cc2)ccc1NC(=N)N (centres undefined) | 18.9% | 9.05% | inactive | 
20 | Cc1ncsc1-c1ccc(CNC(=O)[C@@H]2C[C@@H](O)CN2C(=O)[C@@H](NC(=O)CN2CCC(CN3CCN(c4ccc(NC(=O)Cc5ccc(NC(=O)c6ccc(NC(=N)N)cc6F)cc5)cc4)CC3)CC2)C(C)(C)C)cc1 | 37.3% | 5.64% | inactive | 
21 | COc1cc(C(=O)Nc2ccc(CC(=O)N3CCC(CN4CCN(c5ccc6c(c5)C(=O)N(C5CCC(=O)NC5=O)C6=O)CC4)CC3)cc2)ccc1NC(=N)N (centres undefined) | 37.7% | 14.6% | inactive | 
22 | N=C(N)Nc1ccc(C(=O)Nc2ccc(CC(=O)N3CCC(CN4CCN(CCCNc5ccc6c(c5)C(=O)N(C5CCC(=O)NC5=O)C6=O)CC4)CC3)cc2)cc1 (centres undefined) | 37.4% | 16.8% |  | inhibition at 20 µM [1]: 5.77%
23 | COc1cc(C(=O)Nc2cccc(COCCOCCOCCOC(=O)N[C@H](C(=O)N3C[C@H](O)C[C@H]3C(=O)NCc3ccc(-c4scnc4C)cc3)C(C)(C)C)c2)ccc1NC(=N)N | 30.1% | 8.88% | inactive | 
24 | COc1cc(C(=O)Nc2ccc(CC(=O)NCCCCCCCC(=O)N[C@H](C(=O)N3C[C@H](O)C[C@H]3C(=O)NCc3ccc(-c4scnc4C)cc3)C(C)(C)C)cc2)ccc1NC(=N)N | 31.6% | 11.2% | inactive | 
